Numbered stars: 1 amine (or outer) side, 2 acyl side, 3 side chain; on linkers, the order of the positions; unused ones are H or OH. Square brackets hold non-standard residues; d marks the D form. Side chains are listed from the residue outwards. Peptide text beside a SMILES is read from it. * marks the point of attachment. γGlu = O=C(O)[C@H](CCC(=O)[*:2])N[*:1]; Stearoyl = CCCCCCCCCCCCCCCCCC(=O)*; Aib = CC(C)(N)C(=O)O
Key:
human glucagon receptor = molecular target: T1, human glucagon receptor (Homo sapiens, UniProt P47871); assay: cAMP response (HTRF) of HEK-293 cells stably expressing human glucagon receptor; assay type: cell-based; settings: Table 8; read-out: EC50 hGlucagon R
T1 construct: expressed in transfected cells; host or cells: HEK-293
T1 sequence (P47871 26-477): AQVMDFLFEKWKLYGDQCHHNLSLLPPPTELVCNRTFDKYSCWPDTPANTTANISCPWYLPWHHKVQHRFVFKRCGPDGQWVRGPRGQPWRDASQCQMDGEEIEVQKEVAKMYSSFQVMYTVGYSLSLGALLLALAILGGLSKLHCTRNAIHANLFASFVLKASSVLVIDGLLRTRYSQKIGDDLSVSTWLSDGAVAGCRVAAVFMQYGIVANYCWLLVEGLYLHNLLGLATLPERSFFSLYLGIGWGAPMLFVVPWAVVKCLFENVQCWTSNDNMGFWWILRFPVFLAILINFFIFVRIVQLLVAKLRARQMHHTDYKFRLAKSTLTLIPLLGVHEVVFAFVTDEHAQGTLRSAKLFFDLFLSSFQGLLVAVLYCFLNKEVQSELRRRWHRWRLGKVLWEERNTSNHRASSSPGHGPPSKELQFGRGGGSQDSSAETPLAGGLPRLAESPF
Experimental: (§1) cAMP content of cells was determined using a kit from Cisbio Corp. (cat. no. 62AM4PEJ) based on HTRF (Homogenous Time Resolved Fluorescence). For preparation, cells were split into T175 culture flasks and grown overnight to near confluency in medium (DMEM/10% FBS). Medium was then removed and cells washed with PBS lacking calcium and magnesium, followed by proteinase treatment with accutase (Sigma-Aldrich cat. no. A6964). Detached cells were washed and resuspended in assay buffer (1×HBSS; 20 mM HEPES, 0.1% BSA, 2 mM IBMX) and cellular density determined. They were then diluted to 400000 cells/ml and 25 μl-aliquots dispensed into the wells of 96-well plates. For measurement, 25 μl of test compound in assay buffer was added to the wells, followed by incubation for 30 minutes at room temperature.
(§2) Potencies of peptidic compounds at the GLP-1, glucagon and GIP receptors were determined by exposing cells expressing human glucagon receptor (hGlucagon R), human GIP receptor (hGIP-R) or human GLP-1 receptor (hGLP-1 R) to the listed compounds at increasing concentrations and measuring the formed cAMP as described in Methods.

human GIP receptor = molecular target: T2, human GIP receptor (Homo sapiens, UniProt P48546); assay: cAMP response (HTRF) of HEK-293 cells stably expressing human GIP receptor; assay type: cell-based; settings: Table 8; read-out: EC50 hGIP R
T2 construct: expressed in transfected cells; host or cells: HEK-293
T2 sequence (P48546 22-466): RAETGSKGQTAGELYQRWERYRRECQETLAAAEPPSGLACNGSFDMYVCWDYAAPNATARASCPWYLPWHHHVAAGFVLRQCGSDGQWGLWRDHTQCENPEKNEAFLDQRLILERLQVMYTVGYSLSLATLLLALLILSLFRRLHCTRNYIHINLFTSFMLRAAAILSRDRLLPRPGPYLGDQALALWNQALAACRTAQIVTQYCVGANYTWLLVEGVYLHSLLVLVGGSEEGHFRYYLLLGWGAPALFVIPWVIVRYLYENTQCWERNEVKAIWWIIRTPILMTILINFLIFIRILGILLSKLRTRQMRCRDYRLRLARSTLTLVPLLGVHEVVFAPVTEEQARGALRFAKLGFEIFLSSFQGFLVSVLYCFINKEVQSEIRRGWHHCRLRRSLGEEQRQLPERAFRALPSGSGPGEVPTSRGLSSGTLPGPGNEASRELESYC
Experimental: Agonism of compounds for the receptors was determined by functional assays measuring cAMP response of HEK-293 cell lines stably expressing human GLP-1, GIP or glucagon receptor.
as §1, with “temperature. After addition of HTRF reagents diluted in lysis buffer (kit components), the plates were incubated for 1 hr, followed by measurement of the fluorescence ratio at 665/616 nm. In vitro potency of agonists was quantified by determining the concentrations that caused 50% activation of maximal response (EC50).” for “temperature.”
as §2

[1] = Thioflavin T (ThT) assay for physical stability (fibrillation); assay type: physicochemical; settings: 3 mg/ml, 100 mM acetate pH 4.5 with m-cresol, 37° C. shaking
Summary of the method: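 Peptides at 3 mg/ml final with 100 μM ThT final in 100 mM acetate pH 4.5 containing 2.7 mg/mL m-cresol, eight replicates. Stressed at 37° C by repeated cycles of 10 s shaking at 960 rpm and 50 s rest. Fluorescence read every 20 minutes; lag time in hours taken from the sigmoidal kinetic curve.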

human GLP-1 receptor = molecular target: T3, human GLP-1 receptor (Homo sapiens, UniProt P43220); assay: cAMP response (HTRF) of HEK-293 cells stably expressing human GLP-1 receptor; assay type: cell-based; settings: Table 8; read-out: EC50 hGLP-1R
T3 construct: expressed in transfected cells; host or cells: HEK-293
T3 sequence (P43220 24-463): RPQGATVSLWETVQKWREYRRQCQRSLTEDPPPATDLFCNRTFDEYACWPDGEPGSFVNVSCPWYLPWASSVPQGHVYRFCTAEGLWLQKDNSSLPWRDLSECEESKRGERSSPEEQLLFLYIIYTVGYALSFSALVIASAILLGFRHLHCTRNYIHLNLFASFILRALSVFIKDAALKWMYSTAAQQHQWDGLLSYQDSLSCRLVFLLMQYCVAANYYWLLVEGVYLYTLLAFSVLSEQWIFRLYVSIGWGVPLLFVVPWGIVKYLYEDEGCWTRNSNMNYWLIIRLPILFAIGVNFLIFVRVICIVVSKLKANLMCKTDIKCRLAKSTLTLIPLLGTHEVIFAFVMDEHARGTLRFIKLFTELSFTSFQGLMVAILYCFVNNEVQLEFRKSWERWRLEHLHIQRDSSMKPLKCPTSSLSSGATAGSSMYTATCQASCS
Experimental: as §1, §2

CCCCCCCCCCCCCCCCCC(=O)N[C@@H](CCC(=O)NCCCC[C@H](NC(=O)[C@H](CC(C)C)NC(=O)[C@H](CCCCN)NC(=O)[C@H](CO)NC(=O)[C@H](CC(C)C)NC(=O)[C@H](CC(=O)O)NC(=O)[C@H](CO)NC(=O)[C@@H](NC(=O)[C@H](Cc1ccccc1)NC(=O)[C@@H](NC(=O)CNC(=O)[C@H](Cc1c[nH]cn1)NC(=O)C(C)(C)NC(=O)[C@@H](N)Cc1c[nH]cn1)[C@@H](C)O)[C@@H](C)O)C(=O)N[C@@H](CCC(=O)O)C(=O)N[C@@H](CCC(=O)O)C(=O)N[C@@H](CCC(N)=O)C(=O)N[C@@H](CCCNC(=N)N)C(=O)N[C@@H](CCC(N)=O)C(=O)N[C@@H](CCCCN)C(=O)N[C@@H](CCC(=O)O)C(=O)N[C@@H](Cc1ccccc1)C(=O)N[C@H](C(=O)N[C@@H](CCC(=O)O)C(=O)N[C@@H](Cc1c[nH]c2ccccc12)C(=O)N[C@@H](CC(C)C)C(=O)N[C@@H](CCCCN)C(=O)N[C@@H](C)C(=O)NCC(=O)NCC(=O)N1CCC[C@H]1C(=O)N1CCC[C@H]1C(=O)N[C@@H](CO)C(=O)NC(C)(C)C(=O)N[C@@H](CCCCN)C(=O)N1CCC[C@H]1C(=O)N1CCC[C@H]1C(=O)N1CCC[C@H]1C(=O)N[C@@H](CCCCN)C(N)=O)[C@@H](C)CC)C(=O)O [SEQ ID NO: 21, H-Aib-H-G-T-F-T-S-D-L-S-K-L-K[gGlu-Stea]-E-E-Q-R-Q-K-E-F-I-E-W-L-K-A-G-G-P-P-S-Aib-K-P-P-P-K-NH2] (H-H[Aib]HGTFTSDLSKLK([γGlu-Stearoyl])EEQRQKEFIEWLKAGGPPS[Aib]KPPPK-NH2)
EC50 (human glucagon receptor): 1.9 pM
EC50 (human GIP receptor): 2.6 pM
Lag time before increase [1]: >45 h
EC50 (human GLP-1 receptor): 3.4 pM

Source: US10538567B2, “Compounds as peptidic trigonal GLP1/glucagon/GIP receptor agonists” (priority 2016, dated 2020)
